Results reported in article PMC9221851, “A Fluorescence-Based Competitive Antibody Binding Assay for Kynurenine, a Potential Biomarker of Kidney Transplant Failure” (Diagnostics, 2022).

Experiments:
[1] = molecular target: T1, anti-kynurenine antibody (monoclonal Mouse IgG1a k chain, clone 3D4-F2); experiment: competitive magnetic bead immunoassay, displacement of fluorescent conjugate […] in PBS; type: binding
T1 construct: biotinylated whole antibody on streptavidin magnetic beads

[2] = molecular target: T1, anti-kynurenine antibody (monoclonal Mouse IgG1a k chain, clone 3D4-F2); experiment: magnetic bead immunoassay, fluorescence of unbound conjugate in supernatant; type: binding

| IC50 [1] | Kd [2] | Compound |
| --- | --- | --- |
| 4 µM | – | Nc1ccccc1C(=O)C[C@H](N)C(=O)O [L-kynurenine] |
| – | 5.9 µM | CCN(CC)c1ccc2c(-c3ccccc3C(=O)OCc3cn(CCOCCOCCOCCNC(=O)[C@@H](N)CC(=O)c4ccccc4N)nn3)c3ccc(N(CC)CC)cc3[o+]c2c1 [compound 5, L-Kyn-4EG-RhB] |
